# Results published in patent publication US20240307340A1, “IMMUNOSUPPRESSIVE PHARMACEUTICAL COMPOSITION INCLUDING BENZENE DERIVATIVE AS IMMUNOSUPPRESSANT” (INJE UNIVERSITY INDUSTRY-ACADEMIC COOPERATION FOUNDATION, priority 2021, published 2024).
# Tests used:
# [1] = system: T lymphocyte cell line Jurkat E6-1; assay: Cytotoxicity (CCK-8 viability); assay type: cell-based; conditions: 20 h culture
# Description: The cytotoxicities of the compounds of Examples 1-19 and Comparative Examples 1-3 to T lymphocyte cell line Jurkat E6-1 provided from the Korea Cell Line Bank were measured using a cell counting kit (CCK-8, Dojindo). After the cell line was allowed to grow in RPMI1640 medium supplemented with 10% FBS, 100 U/mL penicillin, and 100 μg/mL streptomycin, cells were plated in each well of a 96-well plate at a density of 2λ10^4 cells/well and treated with each of the compounds of Examples 1-19 and Comparative Examples 1-3. After culture in a 5% CO2 incubator at 37° C. for 20 h, CCK-8 solution was added to a concentration of 10%, followed by reculture in a 5% CO2 incubator at 37° C. for one and a half hours. The absorbance was measured at 450 nm (Reference: 650 nm) and was expressed in percent relative to the value […] from non-treated cells (viability 100%).
# In Table 1, the number 100 corresponds to a viability of 100%.
# [2] = system: BALB/c mice with psoriasis induced by Aldara cream (imiquimod); assay: Imiquimod-induced psoriasis model; assay type: in vivo; conditions: for psoriatic skin lesions (photographs, FIG. 49): 40 mg/kg intraperitoneal in 50 μL DMSO; for number of CD4 T cells in spleen (flow cytometry) / number of CD8 T cells in spleen (flow cytometry) / inflammatory cell infiltration (H&E staining of skin) / erythema / skin scaling / skin thickness: 40 mg/kg intraperitoneal; for number of CD4 T cells in spleen (flow cytometry) / number of CD8 T cells in spleen (flow cytometry): splenic T cells; for inflammatory cell infiltration (H&E staining of skin): versus negative control and DMSO group; for erythema / skin scaling / skin thickness: visual observation, P<0.05
# Description: A test was conducted to evaluate the alleviation of psoriatic skin lesions using psoriasis animals. To this end, first, BALB/c mice (7 weeks old/20 g/female) purchased from Hana Biotech Co., Ltd., Korea were acclimated to the vivarium for a period of one week. After that, the hair on the back of the mice was shaved and completely removed with a depilatory cream (Niclean cream (thioglycolic acid […], Ildong Pharmaceutical Co., Ltd., Korea)). The animals were bred for 24 h. 80 mg of Aldara® cream (imiquimod 4 mg) was applied daily for 1 week (7 days, 7 times in total) to induce psoriasis, as shown in FIG. 49. Thereafter, 80 mg of Aldara® cream (imiquimod 4 mg) was continuously applied to each group for 10 days. During the administration, an observation was made as to whether psoriasis was alleviated. As a result, skin lesions were alleviated in the group administered the inventive compound than in the negative control or the DMSO-administered group, as shown in FIG. 49.
# After the skin tissues of the test subjects were subjected to H&E staining according to the above schedule, the degrees of inflammatory cell infiltration were observed.
# FIGS. 56 and 57 show the results of flow cytometry for the groups administered the compounds of Examples 14 and 17. The in vivo effects of the compounds of Examples 14 and 17 on T cells in the test subjects were investigated. To this end, the spleens were harvested from the mice administered each compound and T cells were extracted from the harvested spleens.
Compound,"viability relative to non-treated cells, 10 μM (%) [1] [%]","viability relative to non-treated cells, 20 μM (%) [1] [%]","viability relative to non-treated cells, 30 μM (%) [1] [%]","psoriatic skin lesions (photographs, FIG. 49) [2]",number of CD4 T cells in spleen (flow cytometry) [2],number of CD8 T cells in spleen (flow cytometry) [2],inflammatory cell infiltration (H&E staining of skin) [2],erythema [2],skin scaling [2],skin thickness [2]
CCCCCCNC(=O)c1ccccc1OC [Example 4],96,92,88,–,–,–,–,–,–,–
CCCCCCCCCCCCNC(=O)c1ccccc1O [Example 7],82,79.3,66,–,–,–,–,–,–,–
CC(C)=CCC/C(C)=C/CC/C(C)=C/COC(=O)c1ccccc1Br [Example 17],73.6,72.1,72.7,alleviated,decreases,decreases,less inflammatory cell infiltration,significant decreases,significant decreases,significant decreases
C=CCCCCCCCCCNC(=O)c1ccccc1Br [Example 13],98.8,97.9,90.3,–,–,–,–,–,–,–
CCCCC(CC)CNC(=O)c1ccccc1Br (centres unmarked) [Example 9],95.3,95.1,92.0,–,–,–,–,–,–,–
CCCCC(CC)CNC(=O)c1ccccc1F (centres unmarked) [Example 8],94.7,92.2,90.9,–,–,–,–,–,–,–
CC(C)=CCC/C(C)=C/CNC(=O)c1ccccc1F [Example 16],89.3,85.7,76.3,–,–,–,–,–,–,–
C=CCCCCCCCCCNC(=O)c1ccccc1F [Example 15],88.8,91.2,93.5,–,–,–,–,–,–,–
CCCCCCCCCCNC(=O)c1ccccc1Br [Example 12],91,85.3,78.5,–,–,–,–,–,–,–
CC(C)=CCC/C(C)=C/CNC(=O)c1ccccc1Br [Example 14],96.9,96.6,95.4,alleviated,decreases,decreases,less inflammatory cell infiltration,significant decreases,significant decreases,significant decreases
